Patent US9889146B2, “Benzoxaborole compounds and uses thereof” (priority 2012, dated 2018)
Values after ≈ are worked out from the molar mass of the structure shown. Where two headings read alike, the source gives them in different places.

Columns and labels:
Format in all cases: cell-based
E. coli = assay: Inhibition of bacterial growth on agar plates; conditions: preliminary studies
[1] = test system: E. coli ATCC 25922 wild type and mutants; assay: MIC in M9 minimal media; conditions: Escherichia coli, read-out: MICs in M9 minimal media
Protocol: (§1) Spontaneous Resistance Frequency was determined in vitro for GSK2251052 and the resistance mutants in E. coli ATCC 25922, K. pneumoniae ATCC 13883, and P. aeruginosa ATCC 27853 strains were characterized. GSK2251052 was prepared as described in U.S. Pat. No. 7,816,344 (the entire contents of which are hereby incorporated by reference herein). LB broth, Mueller Hinton II broth (adjusted), and Difco noble agar were obtained from Becton Dickinson (Cockeysville, Md., USA). M9 minimal broth containing 1×M9 salt, 0.5 μg/ML thiamine, 1 mM MgSO4, 0.1 mM CaCl2, 2% glucose, was obtained from Teknova (Hollister, Calif., USA). Antibacterial agents ciprofloxacin, ceftazidime, chloramphenicol, gentamycin, kanamycin, polymixin B, tobramycin and trimethoprim, and amino acids were obtained from Sigma Chemicals (St. Louis, Mo., USA). Strains were obtained from ATCC (Manassas, Va., USA).
(§2) Susceptibility tests were performed following the recommendations for aerobic bacteria (M7-A7) from the Clinical and Laboratories Standards Institute (CLSI).
(§3) The aminoacyl-tRNA synthetase enzyme, LeuRS, ensures the correct amino acid, leucine, is attached to tRNA^Leu. The LeuRS synthetic active site is capable of aminoacylating tRNA^Leu with amino acids structural similar to leucine (norvaline, norleucine, isoleucine and methionine). These mischarged tRNA^Leu are hydrolyzed by the editing domain, thus preventing the deleterious incorporation of incorrect amino acids into the growing polypeptide. The laboratory generated mutants were further tested for their ability to grow in defined media with exogenously added amino acids. Norvaline and norleucine, structurally similar to leucine, were tested in M9 minimal media. […]

[2] = test system: P. aeruginosa ATCC 27853 wild type and mutants; assay: MIC in M9 minimal media; conditions: Pseudomonas aeruginosa, read-out: MICs in M9 minimal media
Protocol: as §1, §2, §3

[3] = test system: K. pneumoniae ATCC 13883 wild type and mutants; assay: MIC in M9 minimal media; conditions: Klebsiella pneumoniae, read-out: MICs in M9 minimal media
Protocol: as §1, §2, §3

[4] = test system: E. coli isolates from subject E. coli 1; assay: MIC in M9 minimal media of clinical isolates, subject E. coli 1; conditions: Escherichia coli
Protocol: The E. coli and P. mirabilis strains were cultured on Trypticase Soy Agar/5% blood plates (Becton Dickinson BBL), in cation adjusted Mueller-Hinton II Broth, or in M9 minimal salts (Becton Dickinson) broth containing 0.4% glucose and 200 uM MgSO4. L-Norvaline (Sigma-Aldrich) was prepared at a concentration of 6.4 mg/ml in […], in a final volume of approx 0.5 ml, and stored at −20° C. until required.
Minimum inhibitory concentrations (MICs) were determined using the CLSI (Clinical and Laboratory Standards Institute, formerly NCCLS) recommended broth microdilution methodology [NCCLS, 2003] using defined media.
Throughout this study E. coli and P. mirabilis strains were cultured on Trypticase Soy Agar/5% blood plates, on M9 salts/1.2% Bacto Agar plates, in Cation Adjusted Mueller-Hinton II Broth (CAMHB), or in M9 Minimal Salt Broth containing 0.4% glucose and 200 μM MgSO4. GSK2251052 and norvaline were prepared at a concentration of 6.4 mg/mL (free base) in 100% DMSO and 100% water respectively, aliquoted in 0.5 mL individual stocks, and stored at −20° C. until required.
Minimum inhibitory concentrations (MICs) were determined for each organism using the CLSI (Clinical and Laboratory Standards Institute) recommended broth microdilution methodology [CLSI, 2009].
Strains tested are detailed in Table 15. MICs for norvaline and GSK2251052 could only be determined for E. coli isolates from subject E. coli 1 (Table 16) as M9 Minimal Media could not sustain growth of E. coli isolates from subject E. coli 2 (isolates 2a-2o) or P. mirabilis isolates (isolates 3a-3c) from subject E. coli 3. […] This phenotype is consistent with a mutation in the editing site of LeuRS, which could also be responsible for the concomitant decrease in susceptibility to GSK2251052 observed in isolates from Days 2, 3 and 4 (Table 16).

[5] = test system: P. aeruginosa ATCC 27853, E. coli ATCC 25922 and K. pneumoniae ATCC 13883; assay: MIC in M9 minimal media, three strains summarised; conditions: all GSK2251052 resistant mutants
Protocol: as §1, §2
The aminoacyl-tRNA synthetase enzyme, LeuRS, ensures the correct amino acid, leucine, is attached to tRNA^Leu. The LeuRS synthetic active site is capable of aminoacylating tRNA^Leu with amino acids structural similar to leucine (norvaline, norleucine, isoleucine and methionine). […]

[6] = test system: Escherichia coli 1161435 parent and mutant strains B4, B26 and B35; assay: Sensitivity to leucine analogs in MH and M9 media

SMILES: CCC[C@H](N)C(=O)O [Norvaline, L-Norvaline]
- concentration at which a bacterial lawn could still be observed (E. coli): > 64 µg/mL
- MIC ([1]; ATCC25922, E 101(leuRS Y246H)): 4 µg/mL (≈ 34.1 µM)
- MIC ([1]; ATCC25922, E 102(leuRS D345G)): 0.5 µg/mL (≈ 4.27 µM)
- MIC ([1]; ATCC25922, E 107(leuRS G229S)): 1 µg/mL (≈ 8.54 µM)
- MIC ([1]; ATCC25922, E. coli ATCC25922): 32 µg/mL (≈ 273 µM)
- MIC ([2]; ATCC27853, P 101 (leuRS T256P)): 4 µg/mL (≈ 34.1 µM)
- MIC ([2]; ATCC27853, P 106 (leuRS V342M)): 0.25 µg/mL (≈ 2.13 µM)
- MIC ([2]; ATCC27853, P 108 (leuRS T252P)): 0.25 µg/mL (≈ 2.13 µM)
- MIC ([2]; ATCC27853, P. aeruginosa ATCC27853): > 64 µg/mL
- MIC ([3]; ATCC13883, K 104(leuRS D345Y)): 1 µg/mL (≈ 8.54 µM)
- MIC ([3]; ATCC13883, K 105(leuRS G229R)): 4 µg/mL (≈ 34.1 µM)
- MIC ([3]; ATCC13883, K 107(leuRS S227F)): 4 µg/mL (≈ 34.1 µM)
- MIC ([3]; ATCC13883, K 108(leuRS T248P)): 2 µg/mL (≈ 17.1 µM)
- MIC ([3]; ATCC13883, K 110(leuRS V338L)): 4 µg/mL (≈ 34.1 µM)
- MIC ([3]; ATCC13883, Klebsiella pneumoniae ATCC13883): 16 µg/mL (≈ 137 µM)
- MIC ([4]; 24 h, Isolate 1a, Blood, Day 1, read-out: MIC in M9 Minimal Media): 4 µg/mL (≈ 34.1 µM)
- MIC ([4]; 24 h, Isolate 1b, Urine, Day 1, read-out: MIC in M9 Minimal Media): 2 µg/mL (≈ 17.1 µM)
- MIC ([4]; 24 h, subject E. Coli 1, day 1, first line, no LeuRS change, read-out: Norvaline MIC in M9): 4 µg/mL (≈ 34.1 µM)
- MIC ([4]; 24 h, subject E. Coli 1, day 1, second line, no LeuRS change, read-out: Norvaline MIC in M9): 2 µg/mL (≈ 17.1 µM)
- MIC ([4]; 48 h, Isolate 1c, Blood, Day 2, read-out: MIC in M9 Minimal Media): 0.5 µg/mL (≈ 4.27 µM)
- MIC ([4]; 72 h, read-out: Norvaline MIC in M9): 0.5 µg/mL (≈ 4.27 µM)
- MIC ([4]; 96 h, Isolate 1e, Blood, Day 4, read-out: MIC in M9 Minimal Media): 0.5 µg/mL (≈ 4.27 µM)
- MIC ([4]; Isolate 1d, Blood, Day 3, read-out: MIC in M9 Minimal Media): 0.5 µg/mL (≈ 4.27 µM)
- sensitivity of the resistant mutants [5]: High sensitivity
- MIC (sensitivity to leucine analogs) ([6]; 1161435 Parent, M9): > 128 µg/mL
- MIC (sensitivity to leucine analogs) ([6]; 1161435 Parent, MH): > 128 µg/mL
- MIC (sensitivity to leucine analogs) ([6]; B4 (P339L), M9): 2 µg/mL
- MIC (sensitivity to leucine analogs) ([6]; B4 (P339L), MH): > 128 µg/mL
- MIC (sensitivity to leucine analogs) ([6]; B26 (R334H), M9): 16 µg/mL
- MIC (sensitivity to leucine analogs) ([6]; B26 (R334H), MH): > 128 µg/mL
- MIC (sensitivity to leucine analogs) ([6]; B35 (D251N), M9): 64 µg/mL
- MIC (sensitivity to leucine analogs) ([6]; B35 (D251N), MH): > 128 µg/mL
- sensitivity of the mutants ([6]; mutant strains in M9 minimal media): most sensitivity
